Drawing on patent US7015237B2, “Pyridine matrix metalloproteinase inhibitors” (Warner-Lambert Company, priority 2001, dated 2006), this text covers IC50 for 37 molecules.

The first assay deals with MMP-13 (catalytic domain of collagenase 3) (Homo sapiens, UniProt P45452). Description: Thiopeptolide substrate hydrolysis assay, MMP-13. It is filed as biochemical. Particulars: catalytic domain of collagenase 3; Table 1; read-out: MMP-13 IC50. The source says: The assays used to evaluate the biological activity of the invention compounds are well known and routinely used by those skilled in the study of MMP inhibitors and their use to treat clinical conditions.
The assays measure the amount by which a test compound reduces the hydrolysis of a thiopeptolide substrate catalyzed by a matrix metalloproteinase enzyme. Such assays are described in detail by Ye et al., in Biochemistry, 1992; 31(45):11231–11235, which is incorporated herein by reference.
Thiopeptolide substrates show virtually no decomposition or hydrolysis at or below neutral pH in the absence of a matrix metalloproteinase enzyme. A typical thiopeptolide substrate commonly utilized for assays is Ac-Pro-Leu-Gly-thioester-Leu-Leu-Gly-OEt. A 100-μL assay mixture will contain 50 mM of N-2-hydroxyethylpiperazine-N′-2-ethanesulfonic acid buffer (“HEPES”) at pH 7.0, 10 mM CaCl2, 100 μM thiopeptolide substrate, and 1 mM 5,5′-dithio-bis-(2-nitro-benzoic acid) (DTNB). The thiopeptolide substrate concentration may be varied from, for example, 10 to 800 μM to obtain Km and Kcat values. The change in absorbance at 405 nm is monitored on a Thermo Max microplate reader (Molecular Devices, Menlo Park, Calif.) at room temperature (22° C.). The calculation of the amount of hydrolysis of the thiopeptolide substrate is based on E412=13600 M^−1 cm^−1 for the DTNB-derived product 3-carboxy-4-nitrothiophenoxide. Assays are carried out with and without matrix metalloproteinase inhibitor compounds, and the amount of hydrolysis is compared for a determination of inhibitory activity of the test compounds.
In the tables, MMP-1 refers to full-length interstitial collagenase; MMP-3 refers to the catalytic domain of stromelysin-1; MMP-13 refers to the catalytic domain of collagenase 3. Test compounds were evaluated at various concentrations to determine their respective IC50 values.
As for `COc1ncc(C(=O)NCc2ccc3c(c2)OCO3)cc1C(=O)NCc1ccc2c(c1)OCO2` [Example 4, 2-Methoxy-pyridine-3,5-dicarboxylic acid bis-[(1,3-benzodioxol-5-ylmethyl)-amide]], the IC50 is 0.23 µM.

Take `COc1cccc(CNC(=O)c2ccnc(C(=O)NCc3cccc(OC)c3)c2)c1` [Example 1, Pyridine-2,4-dicarboxylic acid bis-(3-methoxy-benzylaride)]: the IC50 was found to be 0.035 µM.

For `O=C(NCc1ccc2c(c1)OCO2)c1ccnc(C(=O)NCc2ccc3c(c2)OCO3)c1` [Example 8, Pyridine-2,4-dicarboxylic acid bis-[(1,3-benzodioxol-5-ylmethyl)-amide]], the IC50 amounted to 0.014 µM.

The same assay, now with this note: catalytic domain, human; combinatorial compounds of Example 14; Table 2; read-out: MMP-13 IC50 CD/Human.
For the molecule `O=C(NCc1cccc(F)c1)c1ccnc(C(=O)NCc2cccc(F)c2)c1` [Example 14.9, Pyridine-2,4-dicarboxylic acid bis-(3-fluoro-benzylamide)], the IC50 was 0.18 µM.

As for `O=C(NCc1cccc(C(F)(F)F)c1)c1ccnc(C(=O)NCc2cccc(C(F)(F)F)c2)c1` [Example 14.35, Pyridine-2,4-dicarboxylic acid bis-(3-trifluoromethyl-benzylamide)], the IC50 was determined as 0.31 µM.

Regarding `Cc1ccc(CNC(=O)c2ccnc(C(=O)NCc3ccc(C)o3)c2)o1` [Example 14.62, Pyridine-2,4-dicarboxylic acid bis-[(5-methyl-furan-2-ylmethyl)-amide]], the IC50 was 88 µM.

With `O=C(NCc1cccs1)c1ccnc(C(=O)NCc2cccs2)c1` [Example 14.60, Pyridine-2,4-dicarboxylic acid bis-[(thiophen-2-ylmethyl)-amide]], the IC50 came to 13 µM.

`O=C(NCc1ccc(C(F)(F)F)cc1)c1ccnc(C(=O)NCc2ccc(C(F)(F)F)cc2)c1` [Example 14.61, Pyridine-2,4-dicarboxylic acid bis-(4-trifluoromethyl-benzylamide)]: the IC50 is 30 µM.

As to `CCc1ccc(CCNC(=O)c2ccnc(C(=O)NCCc3ccc(CC)cc3)c2)cc1` [Example 14.19, Pyridine-2,4-dicarboxylic acid bis-{[2-(4-ethyl-phenyl)-ethyl]-amide}], the IC50 worked out at 30 µM.

On to `O=C(NCc1cc(Cl)cc(Cl)c1)c1ccnc(C(=O)NCc2cc(Cl)cc(Cl)c2)c1` [Example 14.80, Pyridine-2,4-dicarboxylic acid bis-(3,5-dichloro-benzylamide)], for which the IC50 was found to be 30 µM.

As to `O=C(NCc1ccc(F)c(C(F)(F)F)c1)c1ccnc(C(=O)NCc2ccc(F)c(C(F)(F)F)c2)c1` [Example 14.39, Pyridine-2,4-dicarboxylic acid bis-(4-fluoro-3-trifluoromethyl-benzylamide)], the IC50 came out at 0.28 µM.

As for `O=C(NCc1cccc2ccccc12)c1ccnc(C(=O)NCc2cccc3ccccc23)c1` [Example 14.6, Pyridine-2,4-dicarboxylic acid bis-[(naphthalen-1-ylmethyl)-amide]], the IC50 is 30 µM.

In the case of `O=C(NCc1ccncc1)c1ccnc(C(=O)NCc2ccncc2)c1` [Example 14.32, Pyridine-2,4-dicarboxylic acid bis-[(pyridin-4-ylmethyl)-amide]], the IC50 worked out at 2 µM.

On to `O=C(NCc1ccccc1-c1ccccc1)c1ccnc(C(=O)NCc2ccccc2-c2ccccc2)c1` [Example 14.23, Pyridine-2,4-dicarboxylic acid bis-[(biphenyl-2-ylmethyl)-amide]], for which the IC50 was determined as 30 µM.

On to `O=C(NCc1cccc(OC(F)(F)F)c1)c1ccnc(C(=O)NCc2cccc(OC(F)(F)F)c2)c1` [Example 14.67, Pyridine-2,4-dicarboxylic acid bis-(3-trifluoromethoxy-benzylamide)], for which the IC50 is 4 µM.

On to `COc1ccc(C(NC(=O)c2ccnc(C(=O)NC(c3ccc(OC)cc3)c3ccc(OC)cc3)c2)c2ccc(OC)cc2)cc1` [Example 14.46, Pyridine-2,4-dicarboxylic acid bis-{[bis-(4-methoxy-phenyl)-methyl]-amide}], for which the IC50 came out at 30 µM.

Consider `O=C(NCCc1ccc(O)cc1)c1ccnc(C(=O)NCCc2ccc(O)cc2)c1` [Example 14.66, Pyridine-2,4-dicarboxylic acid bis-{[2-(4-hydroxy-phenyl)-ethyl]-amide}], for which the IC50 was 30 µM.

Consider `O=C(NCc1ccc(Cl)cc1Cl)c1ccnc(C(=O)NCc2ccc(Cl)cc2Cl)c1` [Example 14.22, Pyridine-2,4-dicarboxylic acid bis-(2,4-dichloro-benzylamide)], for which the IC50 worked out at 30 µM.

`O=C(NCc1cccnc1)c1ccnc(C(=O)NCc2cccnc2)c1` [Example 14.57, Pyridine-2,4-dicarboxylic acid bis-[(pyridin-3-ylmethyl)-amide]]: the IC50 is 34 µM.

`O=C(NCCc1ccccc1Oc1ccccc1)c1ccnc(C(=O)NCCc2ccccc2Oc2ccccc2)c1` [Example 14.12, Pyridine-2,4-dicarboxylic acid bis-{[2-(2-phenoxy-phenyl)-ethyl]-amide}]: the IC50 turned out to be 30 µM.

As to `Cc1ccc(CNC(=O)c2ccnc(C(=O)NCc3ccc(C)cc3)c2)cc1` [Example 14.54, Pyridine-2,4-dicarboxylic acid bis-(4-methyl-benzylamide)], the IC50 is 1.5 µM.

Regarding `O=C(NC(Cc1ccccc1)c1ccccc1)c1ccnc(C(=O)NC(Cc2ccccc2)c2ccccc2)c1` (stereo not shown) [Example 14.21, Pyridine-2,4-dicarboxylic acid bis-[(1,2-diphenyl-ethyl)-amide]], the IC50 is 30 µM.

As for `O=C(NCc1cccc(OC(F)F)c1)c1ccnc(C(=O)NCc2cccc(OC(F)F)c2)c1` [Example 14.37, Pyridine-2,4-dicarboxylic acid bis-(3-difluoromethoxy-benzylamide)], the IC50 was found to be 0.26 µM.

Turning to `O=C(NCc1ccc2c(c1)OCO2)c1ccnc(C(=O)NCc2ccc3c(c2)OCO3)c1` [Example 14.2, Pyridine-2,4-dicarboxylic acid bis-[(1,3-benzodioxol-5-ylmethyl)-amide]], the IC50 stood at 0.033 µM.

As for `O=C(NCc1cccc(Cl)c1)c1ccnc(C(=O)NCc2cccc(Cl)c2)c1` [Example 14.25, Pyridine-2,4-dicarboxylic acid bis-(3-chloro-benzylamide)], the IC50 came to 0.074 µM.

For `CC(NC(=O)c1ccnc(C(=O)NC(C)c2cccc3ccccc23)c1)c1cccc2ccccc12` (stereo not shown) [Example 14.65, Pyridine-2,4-dicarboxylic acid bis-[(1-naphthalen-1-yl-ethyl)-amide]], the IC50 was found to be 30 µM.

As to “Pyridine-2,4-dicarboxylic acid bis-benzylamide [Example 14.5]”, the IC50 worked out at 0.29 µM.

Consider `O=C(NCCc1c[nH]c2ccccc12)c1ccnc(C(=O)NCCc2c[nH]c3ccccc23)c1` [Example 14.79, Pyridine-2,4-dicarboxylic acid bis-{[2-(1H-indol-3-yl)-ethyl]-amide}], for which the IC50 is 30 µM.

As to `COc1ccc2[nH]cc(CCNC(=O)c3ccnc(C(=O)NCCc4c[nH]c5ccc(OC)cc45)c3)c2c1` [Example 14.78, Pyridine-2,4-dicarboxylic acid bis-{[2-(5-methoxy-1H-indol-3-yl)-ethyl]-amide}], the IC50 amounted to 30 µM.

Take “Pyridine-2,4-dicarboxylic acid bis-indan-1-ylamide [Example 14.73]”: the IC50 worked out at 0.44 µM.

With `COc1cccc(CNC(=O)c2ccnc(C(=O)NCc3cccc(OC)c3)c2)c1` [Example 14.1, Pyridine-2,4-dicarboxylic acid bis-(3-methoxy-benzylamide)], the IC50 was found to be 0.038 µM.

On to `O=C(NCc1ccc(Cl)cc1)c1ccnc(C(=O)NCc2ccc(Cl)cc2)c1` [Example 14.4, Pyridine-2,4-dicarboxylic acid bis-(4-chloro-benzylamide)], for which the IC50 was determined as 0.3 µM.

Consider `Nc1ccc(CNC(=O)c2ccnc(C(=O)NCc3ccc(N)cc3)c2)cc1` [Example 14.44, Pyridine-2,4-dicarboxylic acid bis-(4-amino-benzylamide)], for which the IC50 came out at 70 µM.

Take `COc1ccc(CNC(=O)c2ccnc(C(=O)NCc3ccc(OC)cc3)c2)cc1` [Example 14.8, Pyridine-2,4-dicarboxylic acid bis-(4-methoxy-benzylamide)]: the IC50 is 0.13 µM.

As to `O=C(NCCC(c1ccccc1)c1ccccc1)c1ccnc(C(=O)NCCC(c2ccccc2)c2ccccc2)c1` [Example 14.47, Pyridine-2,4-dicarboxylic acid bis-[(3,3-diphenyl-propyl)-amide]], the IC50 came to 30 µM.

For the molecule `O=C(NCc1ccccc1F)c1ccnc(C(=O)NCc2ccccc2F)c1` [Example 14.50, Pyridine-2,4-dicarboxylic acid bis-(2-fluoro-benzylamide)], the IC50 turned out to be 84 µM.

For `O=C(NCc1ccc(F)c(Cl)c1)c1ccnc(C(=O)NCc2ccc(F)c(Cl)c2)c1` [Example 14.42, Pyridine-2,4-dicarboxylic acid bis-(3-chloro-4-fluoro-benzylamide)], the IC50 stood at 0.04 µM.
